Key:
wheat = assay: Test A preemergence; type: in vivo, Triticum aestivum
In short: (§1)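 Visual injury scored 0–100 (100 = complete control) against untreated controls about 10 days after treatment in a greenhouse. Test chemicals, formulated with surfactant in non-phytotoxic solvent, were sprayed on soil preemergence or on 2-10 cm, one- to two-leaf plants postemergence.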

blackgrass = assay: Test C postemergence; type: in vivo, Alopecurus myosuroides
In short: (§2)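 Sown in loam/sand → sprayed pre-emergence; or grown to 1–4 leaves in peat mix → sprayed post-emergence. Same solvent/surfactant formulation both ways. Greenhouse 13–15 d. Score 0–100 visual.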

pigweed = assay: Test C postemergence; type: in vivo, Amaranthus retroflexus
In short: as §2

giant foxtail = assay: Test A preemergence; type: in vivo, Setaria faberii
In short: as §1

velvetleaf [1] = assay: Test A preemergence; type: in vivo, Abutilon theophrasti
In short: as §1

waterhemp = assay: Test C postemergence; type: in vivo, Amaranthus rudis
In short: as §2

morningglory [2] = assay: Test A preemergence; type: in vivo, Ipomoea spp.
In short: as §1

oilseed rape = assay: Test C postemergence; type: in vivo, Brassica napus
In short: as §2

velvetleaf [3] = assay: Test C postemergence; type: in vivo, Abutilon theophrasti
In short: as §2

kochia = assay: Test C postemergence; type: in vivo, Kochia scoparia
In short: as §2

galium = assay: Test C postemergence; type: in vivo, Galium aparine
In short: as §2

corn = assay: Test A postemergence; type: in vivo, Zea mays; conditions: 0 to 100 scale where 0 is no effect and 100 is complete control
In short: as §1

ragweed = assay: Test C postemergence; type: in vivo, Ambrosia elatior
In short: as §2

soybean = assay: Test C postemergence; type: in vivo, Glycine max
In short: as §2

morningglory [4] = assay: Test A postemergence; type: in vivo, Ipomoea spp.; conditions: 0 to 100 scale where 0 is no effect and 100 is complete control
In short: as §1

johnsongrass = assay: Test C postemergence; type: in vivo, Sorghum halepense
In short: as §2

wheat, winter = assay: Test C postemergence; type: in vivo, Triticum aestivum
In short: as §2

velvetleaf [5] = assay: Test A postemergence; type: in vivo, Abutilon theophrasti; conditions: 0 to 100 scale where 0 is no effect and 100 is complete control
In short: as §1

[6] = 500 g ai/ha, 0 to 100 scale where 0 is no effect and 100 is complete control
[7] = 16 g ai/ha, postemergence, 0 is no effect, 100 is complete control
[8] = 31 g ai/ha, postemergence, visual rating, scale 0 to 100 (0 no effect, 100 complete control), 13 to 15 days
[9] = 125 g ai/ha, postemergence, visual rating, scale 0 to 100 (0 no effect, 100 complete control)
[10] = Postemergence, 62 g ai/ha, scale 0 to 100 (0 no effect, 100 complete control)

Structure (SMILES): Cc1cnc(Oc2cccc(C#N)c2-n2cc(C(F)(F)F)cn2)nc1 [Compound 180]
- Wheat plant response rating (0 to 100 scale) (wheat; 125 g ai/ha): 20
- Wheat plant response rating (wheat; [6]): 80
- Plant response rating (0 to 100), Blackgrass (blackgrass; [7]): 0
- Blackgrass plant response rating (blackgrass; [8]): 10
- Plant response rating, Blackgrass (blackgrass; [9]): 30
- Plant response rating, Blackgrass (blackgrass; [10]): 5
- Plant response rating (0 to 100), Pigweed (pigweed; [7]): 10
- Pigweed plant response rating (pigweed; [8]): 55
- Plant response rating, Pigweed (pigweed; [9]): 70
- Plant response rating, Pigweed (pigweed; [10]): 60
- Foxtail, Giant plant response rating (0 to 100 scale) (giant foxtail; 125 g ai/ha): 100
- Foxtail, Giant plant response rating (giant foxtail; [6]): 100
- Velvetleaf plant response rating (0 to 100 scale) (velvetleaf [1]; 125 g ai/ha): 100
- Velvetleaf plant response rating (velvetleaf [1]; [6]): 100
- Plant response rating (0 to 100), Waterhemp (waterhemp; [7]): 25
- Waterhemp plant response rating (waterhemp; [8]): 60
- Plant response rating, Waterhemp (waterhemp; [9]): 75
- Plant response rating, Waterhemp (waterhemp; [10]): 70
- Morningglory plant response rating (0 to 100 scale) (morningglory [2]; 125 g ai/ha): 90
- Morningglory plant response rating (morningglory [2]; [6]): 100
- Plant response rating (0 to 100), Oilseed Rape (oilseed rape; [7]): 15
- Oilseed Rape plant response rating (oilseed rape; [8]): 25
- Plant response rating, Oilseed Rape (oilseed rape; [9]): 55
- Plant response rating, Oilseed Rape (oilseed rape; [10]): 40
- Plant response rating (0 to 100), Velvetleaf (velvetleaf [3]; [7]): 30
- Velvetleaf plant response rating (velvetleaf [3]; [8]): 40
- Plant response rating, Velvetleaf (velvetleaf [3]; [9]): 85
- Plant response rating, Velvetleaf (velvetleaf [3]; [10]): 65
- Plant response rating (0 to 100), Kochia (kochia; [7]): 40
- Kochia plant response rating (kochia; [8]): 50
- Plant response rating, Kochia (kochia; [9]): 60
- Plant response rating, Kochia (kochia; [10]): 50
- Plant response rating (0 to 100), Galium (galium; [7]): 50
- Galium plant response rating (galium; [8]): 55
- Plant response rating, Galium (galium; [9]): 90
- Plant response rating, Galium (galium; [10]): 60
- Corn plant response rating (corn; 125 g ai/ha): 70
- Plant response rating, Corn (corn; 500 g ai/ha): 90
- Plant response rating (0 to 100), Ragweed (ragweed; [7]): 35
- Ragweed plant response rating (ragweed; [8]): 65
- Plant response rating, Ragweed (ragweed; [9]): 70
- Plant response rating, Ragweed (ragweed; [10]): 80
- Plant response rating (0 to 100), Soybean (soybean; [7]): 85
- Soybean plant response rating (soybean; [8]): 85
- Plant response rating, Soybean (soybean; [9]): 95
- Plant response rating, Soybean (soybean; [10]): 98
- Morningglory plant response rating (morningglory [4]; 125 g ai/ha): 100
- Plant response rating, Morningglory (morningglory [4]; 500 g ai/ha): 100
- Plant response rating (0 to 100), Johnsongrass (johnsongrass; [7]): 0
- Johnsongrass plant response rating (johnsongrass; [8]): 0
- Plant response rating, Johnsongrass (johnsongrass; [9]): 5
- Plant response rating, Johnsongrass (johnsongrass; [10]): 0
- Plant response rating (0 to 100), Wheat (wheat, winter; [7]): 0
- Wheat plant response rating (wheat, winter; [8]): 0
- Plant response rating, Wheat (wheat, winter; [9]): 5
- Plant response rating, Wheat (wheat, winter; [10]): 0
- Velvetleaf plant response rating (velvetleaf [5]; 125 g ai/ha): 100
- Plant response rating, Velvetleaf (velvetleaf [5]; 500 g ai/ha): 100

Reference: patent US9695155B2, “Herbicidal substituted pyrimidinyloxy benzene compounds” (E. I. DU PONT DE NEMOURS AND COMPANY, priority 2013, dated 2017)
